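Cells were grown in 96-well plates and exposed to each compound for 48 hours at five concentrations; endpoints were interpolated linearly between bracketing concentrations, or set to the highest concentration if not reached. GI50 = concentration required for 50% inhibition of growth.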 Activity calls are given as the source filed them. Rule as the data show it: active = GI50 up to about 1.1 µM and inactive = higher.
Experiments:
Assay in all cases: inhibition of tumour cell growth, NCI panel, 48 h
KM-20L2 = tested on: KM-20L2
SNB-19 = tested on: SNB-19
NCI-H226 = tested on: NCI-H226
M14 = tested on: M14
NCI-H23 = tested on: NCI-H23
HL-60 = tested on: HL-60
HT-29 = tested on: HT-29
NCI-H522 = tested on: NCI-H522
OVCAR-8 = tested on: OVCAR-8
UACC-62 = tested on: UACC-62
SF-539 = tested on: SF-539
OVCAR-5 = tested on: OVCAR-5
Malme-3M = tested on: Malme-3M
U-251 = tested on: U-251
COLO 205 = tested on: COLO 205
TK-10 = tested on: TK-10
SR = tested on: SR
DU-145 = tested on: DU-145
MDA-MB-231 = tested on: MDA-MB-231
Hs-578T = tested on: Hs-578T

| Compound | GI50 (KM-20L2) | GI50 (SNB-19) | GI50 (NCI-H226) | GI50 (M14) | GI50 (NCI-H23) | GI50 (HL-60) | GI50 (HT-29) | GI50 (NCI-H522) | GI50 (OVCAR-8) | GI50 (UACC-62) | GI50 (SF-539) | GI50 (OVCAR-5) | GI50 (Malme-3M) | GI50 (U-251) | GI50 (COLO 205) | GI50 (TK-10) | GI50 (SR) | GI50 (DU-145) | GI50 (MDA-MB-231) | GI50 (Hs-578T) |
| --- | --- | --- | --- | --- | --- | --- | --- | --- | --- | --- | --- | --- | --- | --- | --- | --- | --- | --- | --- | --- |
| CC(=O)c1c(C)[n+]([O-])c2cc(C)c(C)cc2[n+]1[O-] | > 100 µM (inactive) | > 100 µM (inactive) | > 100 µM (inactive) | > 100 µM (inactive) | > 100 µM (inactive) | > 100 µM (inactive) | 65.8 µM (inactive) | > 100 µM (inactive) | > 100 µM (inactive) | > 100 µM (inactive) | > 100 µM (inactive) | > 100 µM (inactive) | > 100 µM (inactive) | > 100 µM (inactive) | > 100 µM (inactive) | > 100 µM (inactive) |  |  |  |  |
| COc1ccccc1C1C(C(=O)Nc2ccccc2)=C(C)NC(C)=C1C(=O)Nc1ccccc1 | 94.8 µM (inactive) | > 100 µM (inactive) | 53 µM (inactive) | 45 µM (inactive) | > 100 µM (inactive) |  | 83.4 µM (inactive) | 48.1 µM (inactive) | > 100 µM (inactive) | 40.6 µM (inactive) | 36.1 µM (inactive) | 91 µM (inactive) | > 100 µM (inactive) | 90.8 µM (inactive) | 24.5 µM (inactive) | 89.5 µM (inactive) |  |  |  |  |
| Cn1c(-c2cccs2)cc(-c2cccs2)c1-c1cccs1 |  | > 100 µM (inactive) | > 100 µM (inactive) | > 79.8 µM (inactive) | 13.6 µM (inactive) | 33 µM (inactive) | > 100 µM (inactive) | 21.3 µM (inactive) | > 100 µM (inactive) | 11.9 µM (inactive) | > 100 µM (inactive) | > 100 µM (inactive) | > 100 µM (inactive) | > 79.3 µM (inactive) | 8.95 µM (inactive) | > 100 µM (inactive) | 13.6 µM (inactive) | > 100 µM (inactive) | 98.9 µM (inactive) | 44.5 µM (inactive) |
| NC(=O)NNC(=O)CCn1[nH]c(=O)c(Cl)c(Cl)c1=O | > 100 µM (inactive) | > 100 µM (inactive) | > 100 µM (inactive) | > 100 µM (inactive) | > 100 µM (inactive) | > 100 µM (inactive) | > 100 µM (inactive) | > 100 µM (inactive) | > 100 µM (inactive) | > 100 µM (inactive) |  | > 100 µM (inactive) | > 100 µM (inactive) | > 100 µM (inactive) | > 100 µM (inactive) | > 100 µM (inactive) |  |  |  |  |
| COc1ccc(C2=Nc3ccccc3SC(C)C2)cc1 (centres undefined) | > 100 µM (inactive) | > 100 µM (inactive) | > 100 µM (inactive) | > 100 µM (inactive) | > 100 µM (inactive) | 46 µM (inactive) | 62.1 µM (inactive) | > 100 µM (inactive) | > 100 µM (inactive) | > 100 µM (inactive) | > 100 µM (inactive) | > 100 µM (inactive) | > 100 µM (inactive) | 92.7 µM (inactive) | > 100 µM (inactive) | > 100 µM (inactive) |  |  |  |  |
| O=c1[nH]c2nc3ccccc3c(=O)n2nc1Cc1ccccc1 | > 100 µM (inactive) | > 100 µM (inactive) | 94.6 µM (inactive) | > 100 µM (inactive) | > 100 µM (inactive) |  | > 100 µM (inactive) | 98.2 µM (inactive) | > 100 µM (inactive) | > 100 µM (inactive) | > 100 µM (inactive) | > 100 µM (inactive) | > 100 µM (inactive) | > 100 µM (inactive) | > 100 µM (inactive) |  | > 100 µM (inactive) |  |  |  |
| CCOc1cccc(/C=N\c2ccccc2SSc2ccccc2/N=C\c2cccc(OCC)c2O)c1O |  | 11.2 µM (inactive) | 6.41 µM (inactive) | 4.06 µM (inactive) | 5.08 µM (inactive) | 3.7 µM (inactive) | 14.6 µM (inactive) | 2.95 µM (inactive) | 2.52 µM (inactive) | 4.28 µM (inactive) | 26.5 µM (inactive) | 4.56 µM (inactive) | 10.2 µM (inactive) | 3.64 µM (inactive) | 3.02 µM (inactive) | 29 µM (inactive) | 4.25 µM (inactive) | 16.6 µM (inactive) | 8.95 µM (inactive) | 16.9 µM (inactive) |
| ClCCN(CCCl)c1ccc(CNCCCNCc2ccc(N(CCCl)CCCl)cc2)cc1 |  | 1.87 µM (inactive) | 6.75 µM (inactive) | 4.7 µM (inactive) | 3 µM (inactive) | 1.03 µM (active) | 1.87 µM (inactive) | 2.13 µM (inactive) | 2.38 µM (inactive) | 1.97 µM (inactive) | 1.46 µM (inactive) | 3.97 µM (inactive) | 2.44 µM (inactive) | 1.33 µM (inactive) | 1.62 µM (inactive) | 2.67 µM (inactive) | 0.11 µM (active) | 2.37 µM (inactive) | 2.7 µM (inactive) | 3.13 µM (inactive) |
| Cc1c2c(cc3c1C(=O)C(=O)C1=C3OC[C@@H]1C)C(C)(C)CCC2 | 19.5 µM (inactive) | 22.1 µM (inactive) |  | 13.9 µM (inactive) | 14.8 µM (inactive) | 10.3 µM (inactive) | 16.6 µM (inactive) |  | 18.2 µM (inactive) | 13.2 µM (inactive) | 16.3 µM (inactive) | 21.5 µM (inactive) | 15.6 µM (inactive) | 16.2 µM (inactive) | 7.29 µM (inactive) | 26.5 µM (inactive) | 11.6 µM (inactive) |  |  |  |
| Fc1ccc(C(OCCN2CCN(CCCCl)CC2)c2ccc(F)cc2)cc1 |  | 37.6 µM (inactive) | 20.5 µM (inactive) | 18.9 µM (inactive) | 22.3 µM (inactive) | 0.391 µM (active) | 17 µM (inactive) | 18.7 µM (inactive) | 27.5 µM (inactive) | 19.1 µM (inactive) | 18.7 µM (inactive) | 23.1 µM (inactive) | 17 µM (inactive) | 41 µM (inactive) | 16.3 µM (inactive) | 36.7 µM (inactive) | 18.8 µM (inactive) | 28.9 µM (inactive) | 26.5 µM (inactive) | 29.9 µM (inactive) |
| COc1ccc(C2C(Cl)C(=O)N2n2cnc3ccccc3c2=O)cc1 (centres undefined) | > 100 µM (inactive) | > 100 µM (inactive) | > 100 µM (inactive) | 28.4 µM (inactive) | 94 µM (inactive) | 59.2 µM (inactive) | > 100 µM (inactive) | 89.3 µM (inactive) | 51.5 µM (inactive) | > 100 µM (inactive) |  | > 100 µM (inactive) | > 100 µM (inactive) | > 100 µM (inactive) | 62.2 µM (inactive) | 98.6 µM (inactive) | 33 µM (inactive) |  |  |  |
| CCc1cccc(C)c1NC(=O)C1=C(C)NC(C)=C(C(=O)Nc2c(C)cccc2CC)C1c1ccc2c(c1)OCO2 | 23.9 µM (inactive) | 29.1 µM (inactive) | 19.8 µM (inactive) | 16.1 µM (inactive) | 16.5 µM (inactive) | 21.4 µM (inactive) | 20.8 µM (inactive) | 15.9 µM (inactive) | 29.6 µM (inactive) |  | 19.7 µM (inactive) | 22 µM (inactive) | 15.6 µM (inactive) | 15.2 µM (inactive) | 18.5 µM (inactive) | 26.6 µM (inactive) |  |  |  |  |
| CCCCNC1CCCCC[C@H]1O (some centres undefined) | > 100 µM (inactive) | > 100 µM (inactive) | > 100 µM (inactive) | > 100 µM (inactive) | > 100 µM (inactive) | > 100 µM (inactive) | > 100 µM (inactive) | > 100 µM (inactive) | > 100 µM (inactive) | > 100 µM (inactive) | > 100 µM (inactive) | > 100 µM (inactive) |  | > 100 µM (inactive) | > 100 µM (inactive) | > 100 µM (inactive) | > 100 µM (inactive) |  |  |  |
| C/C(=C\C(C)COCc1ccccc1)[C@H](COCc1ccccc1)OCc1ccccc1 (some centres undefined) | > 100 µM (inactive) | > 100 µM (inactive) | > 100 µM (inactive) | > 100 µM (inactive) | 48 µM (inactive) | > 10 µM (inactive) | > 100 µM (inactive) | 88.5 µM (inactive) | > 100 µM (inactive) | > 100 µM (inactive) | > 100 µM (inactive) | > 100 µM (inactive) |  | > 100 µM (inactive) | > 100 µM (inactive) | > 100 µM (inactive) |  |  |  |  |
| CCC1C(=O)OCc2c1cc1n(c2=O)Cc2ccccc2-1 (centres undefined) | > 100 µM (inactive) | > 100 µM (inactive) | > 100 µM (inactive) | > 100 µM (inactive) | > 100 µM (inactive) | > 100 µM (inactive) | > 100 µM (inactive) |  | > 100 µM (inactive) | > 100 µM (inactive) | > 100 µM (inactive) | > 100 µM (inactive) | > 100 µM (inactive) |  |  | > 100 µM (inactive) | > 100 µM (inactive) |  |  |  |
| O=C1CCc2ccc(O)c(c2)Oc2ccc(cc2)[C@@H]2O[C@@H]2CO1 | 88.5 µM (inactive) | 82.6 µM (inactive) | 40.5 µM (inactive) | 41.6 µM (inactive) | 38.4 µM (inactive) | 37.9 µM (inactive) | 89.3 µM (inactive) |  | 75.5 µM (inactive) | 30.5 µM (inactive) | 70.6 µM (inactive) | 54.2 µM (inactive) | 22.2 µM (inactive) | 67.8 µM (inactive) | 98.9 µM (inactive) | 73.5 µM (inactive) | 30.1 µM (inactive) |  |  |  |
| CCc1nc(N)nc(N)c1-c1ccc(N2CCNCC2)c([N+](=O)[O-])c1 |  | 41.5 µM (inactive) | 65.9 µM (inactive) | 7.08 µM (inactive) | 7.85 µM (inactive) | 4.59 µM (inactive) | 4.47 µM (inactive) | 24.4 µM (inactive) | 6.7 µM (inactive) | 6.08 µM (inactive) | 10.6 µM (inactive) | 30.3 µM (inactive) | 15.5 µM (inactive) | 6.03 µM (inactive) | 15.3 µM (inactive) | > 100 µM (inactive) | 4.35 µM (inactive) | 29.2 µM (inactive) | 26.5 µM (inactive) | 18.5 µM (inactive) |

Source: ChEMBL document CHEMBL1201862, “PubChem BioAssay data set” (2004)
